Laboratory results taken from PMC4877593, “Design and Synthesis of Potent in Vitro and in Vivo Anticancer Agents Based on 1-(3′,4′,5′-Trimethoxyphenyl)-2-Aryl-1H-Imidazole” (Scientific Reports, 2016).
Like-named read-outs stand apart in the source and are kept apart here.

What was measured:
HeLa cells = test: Western blot analysis of cell cycle, spindle checkpoint and apoptosis proteins; type: cell-based, human
Method: HeLa cells were incubated in the presence of 4o and, after different times, were collected, centrifuged, and washed two times with ice cold phosphate buffered saline (PBS). The pellet was then resuspended in lysis buffer. After the cells were lysed on ice for 30 min, lysates were centrifuged at 15000 × g at 4 °C for 10 min. The protein concentration in the supernatant was determined using the BCA protein assay reagents (Pierce, Italy). Equal amounts of protein (10 μg) were resolved using sodium dodecyl sulfate-polyacrylamide gel electrophoresis (SDS-PAGE) (Criterion Precast, BioRad, Italy) and transferred to a PVDF Hybond-P membrane (GE Healthcare). Membranes were blocked with a bovine serum albumin solution (5% in Tween PBS 1X), the membranes being gently rotated overnight at 4 °C. Membranes were then incubated with primary antibodies against Bcl-2, PARP, cdc25c, CDC20, ROCK1, MAD2, p-H2AX^Ser139, cyclin B, p-cdc2^Tyr15, […] (all from Cell Signaling), caspase-3 (Alexis), or β-actin (Sigma-Aldrich) for 2 h at room temperature. Membranes were next incubated with peroxidase labeled secondary antibodies for 60 min. All membranes were visualized using ECL Select (GE Healthcare), and images were acquired using an Uvitec-Alliance imaging system (Uvitec, Cambridge, UK). To ensure equal protein loading, each membrane was stripped and reprobed with anti-β-actin antibody.

RS4;11 = test: In vitro antiproliferative activity (MTT), RS4;11; type: cell-based; conditions: Homo sapiens, tumor cell proliferation, 72 h, mean ± SE
PBL stimulated with PHA = test: Cytotoxicity in PHA-stimulated peripheral blood lymphocytes; type: cell-based, human; conditions: 72 h, PBL from healthy donors, MTT, read-out: IC50 PBLPHA
Method: This value was almost 600 times higher than that observed against the Jurkat lymphoblastic cell line.
Human T-cell leukemia (CCRF-CEM and Jurkat) and human B-cell leukemia (SEM) cells were grown in RPMI-1640 medium (Gibco, Milano, Italy). Breast adenocarcinoma (MCF7), human cervix carcinoma (HeLa), and human colon adenocarcinoma (HT-29) cells were grown in DMEM medium (Gibco, Milano, Italy), all supplemented with 115 units/mL penicillin G (Gibco, Milano, Italy), 115 μg/mL streptomycin (Invitrogen, Milano, Italy), and 10% fetal bovine serum (Invitrogen, Milano, Italy). Stock solutions (10 mM) of the different compounds were obtained by dissolving them in dimethyl sulfoxide (DMSO). Individual wells of a 96-well tissue culture microtiter plate were inoculated with 100 μL of complete medium containing 8 × 10^3 cells. The plates were incubated at 37 °C in a humidified 5% CO2 incubator for 18 h prior to the experiments. After medium removal, 100 μL of fresh medium containing the test compound at different concentrations was added to each well in triplicate and incubated at 37 °C for 72 h. The percentage of DMSO in the medium never exceeded 0.25%. This was also the maximum DMSO concentration in all cell-based assays described below. […] Different concentrations of the test compounds were added, and viability was determined 72 h later by the MTT test. […]

Jurkat cells = test: Cell cycle distribution by flow cytometry (PI), Jurkat; type: cell-based, human; conditions: 24 h treatment
Method: The effects of a 24 h treatment with different concentrations of 4o on cell cycle progression in Jurkat, and HeLa cells were determined by flow cytometry, following propidium iodide (PI) staining of the cells (Fig. 4, Panels A,B). […] In the HeLa cells, the G2/M block was accompanied by a significant reduction of both G1 and S phase cells. In order to determine whether 4o was able to block cells at the mitotic phase (M), cells were stained with an immunofluorescent antibody to p-histone H3, a well known mitotic marker, as well as PI, and analyzed by flow cytometry. As shown in Fig. 4 (Panel C), in which representative histograms are presented, Hela cells arrested in M phase by treatment with 4o are readily distinguished from G2 cells by the higher level of p-histone H3. In particular, treatment with 4o induced an increase in the percentage of mitotic cells from the 2% observed in untreated cells to about 30% with both 50 and 100 nM 4o at 24 h (Fig. 4, Panel D).
5 × 10^5 HeLa or Jurkat cells were treated with different concentrations of the test compounds for 24 h. After the incubation period, the cells were collected, centrifuged, and fixed with ice-cold ethanol (70%). […] Samples were analyzed on a Cytomic FC500 flow cytometer (Beckman Coulter). DNA histograms were analyzed using MultiCycle for Windows (Phoenix Flow Systems).

[1] = tested on: panel of seven human tumor cell lines; test: Antiproliferative activity across the panel of seven human tumor cell lines; type: cell-based
Method: (§1) Human T-cell leukemia (CCRF-CEM and Jurkat) and human B-cell leukemia (SEM) cells were grown in RPMI-1640 medium (Gibco, Milano, Italy). Breast adenocarcinoma (MCF7), human cervix carcinoma (HeLa), and human colon adenocarcinoma (HT-29) cells were grown in DMEM medium (Gibco, Milano, Italy), all supplemented with 115 units/mL penicillin G (Gibco, Milano, Italy), 115 μg/mL streptomycin (Invitrogen, Milano, Italy), and 10% fetal bovine serum (Invitrogen, Milano, Italy). Stock solutions (10 mM) of the different compounds were obtained by dissolving them in dimethyl sulfoxide (DMSO). Individual wells of a 96-well tissue culture microtiter plate were inoculated with 100 μL of complete medium containing 8 × 10^3 cells. The plates were incubated at 37 °C in a humidified 5% CO2 incubator for 18 h prior to the experiments. After medium removal, 100 μL of fresh medium containing the test compound at different concentrations was added to each well in triplicate and incubated at 37 °C for 72 h. The percentage of DMSO in the medium never exceeded 0.25%. This was also the maximum DMSO concentration in all cell-based assays described below. […] Different concentrations of the test compounds were added, and viability was determined 72 h later by the MTT test. For cytotoxicity evaluations in resting PBL cultures, non-adherent cells were resuspended (5 × 10^5 cells/mL) and treated for 72 h with the test compounds, as described above.

HT-29 = test: In vitro antiproliferative activity (MTT), HT-29; type: cell-based; conditions: Homo sapiens, tumor cell proliferation, 72 h, mean ± SE
Method: as §1

Jurkat [2] = test: In vitro antiproliferative activity (MTT), Jurkat; type: cell-based; conditions: Homo sapiens, tumor cell proliferation, 72 h, mean ± SE
Method: as §1

Jurkat [3] = test: ROS production (H2-DCFDA), Jurkat; type: cell-based, human; conditions: in comparison with control cells
Method: Figure 7 Assessment of mitochondrial membrane potential (Δψmt) and production of ROS after treatment of HeLa (Panels A,B) or Jurkat (Panels C,D) cells with compound 4o. Cells were treated with the indicated concentration of compound for 24 or 48 h and then stained with the fluorescent probe JC-1 for analysis of mitochondrial potential or H2-DCFDA for the evaluation of ROS levels. Cells were then analyzed by flow cytometry as described in the experimental section.
It is also well known that dissipation of mitochondrial potential is associated with mitochondrial production of ROS[38]. Superoxide anion is produced by mitochondria due to a shift from the normal 4-electron reduction of O2 to a 1-electron reduction when cytochrome c is released from mitochondria upon apoptosis. Therefore, we investigated whether ROS production increased after treatment with compound 4o. We utilized the dye 2,7-dichlorodihydrofluorescein diacetate (H2-DCFDA), which is oxidized to the fluorescent compound dichlorofluorescein (DCF) upon ROS induction.

[4] = HeLa, 24 h, all concentrations examined

In the case of `CCOc1ccc(-c2nccn2-c2cc(OC)c(OC)c(OC)c2)cc1Cl` [Compound 4o, 2-(3′-Chloro-4′-ethoxyphenyl)-1-(3′,4′,5′-trimethoxyphenyl)-1H-imidazole], the “phosphorylation of γH2A.X (Ser139)” value (HeLa cells; HeLa) is reported as “remarkable increase”, the “cyclin B1 expression” value (HeLa cells; HeLa, 50 nM, 24 h) is reported as “marked increase” and the MAD2 expression (HeLa cells; HeLa, 24 and 48 h) is reported as “substantially decreased”. The “expression of phosphorylated cdc2” value (HeLa cells; HeLa, 24 and 48 h) was “strongly decreased”, the PARP (HeLa cells; HeLa, 50, 100 and 250 nM, 24 and 48 h) was “cleavage of PARP” and the caspase-3 (HeLa cells; HeLa, 50, 100 and 250 nM, in particular after 48 h) was “activation of the effector caspase-3”. The “level of cdc20” value (HeLa cells; HeLa, 24 h) was “remained unaffected”, the “total cdc25c expression” value (HeLa cells; HeLa, 24 h) was “strongly reduced” and the Bcl-2 expression (HeLa cells; [4]) was “dramatic decrease”. The Mcl-1 expression (HeLa cells; [4]) was “dramatic decrease”, the “phosphorylation of PLK1” value (HeLa cells; HeLa, 24 h, effect disappeared at 48 h) was “marked increase” and the ROCK1 cleavage (HeLa cells; HeLa, 48 h) was “cleaved bands of ROCK1 appeared”. For the same compound, the IC50 (RS4;11) was 1.2 ± 0.7 nM, the IC50 (PBL stimulated with PHA; Homo sapiens, Lymphocyte) was about 500 nM and the IC50 (PBL stimulated with PHA) was 520 ± 40 nM. For the same compound, the “lowest concentration with a rise in G2/M cells” value (Jurkat cells) was 25 nM, the IC50 ([1]; average over the seven cell lines, read-out: average IC50 values) was 1.3 nM and the IC50 ([1]; range over seven cancer cell lines, read-out: IC50 values in the seven cell lines (range)) was 0.4 to 3.8 nM. For the same compound, the IC50 (HT-29) was 0.4 ± 0.06 nM, the IC50 (Jurkat [2]) was 0.9 ± 0.2 nM and the “ROS production (H2-DCFDA)” value (Jurkat [3]) was “induced the production of large amounts of ROS”.
